How the values were obtained:
[1] = molecular target: T1, Trace amine-associated receptor 1 (Homo sapiens, UniProt Q96RJ0); test: Agonist activity at TAAR1 (unknown origin) transfected in HEK293 cells co-transfected with GalphaS-Nluc, Gbeta1/3 and Ggamma1/2/9-mVenus assessed as GalphaS-Gbeta/gamma dissociation by BRET assay; format: functional, cell-based
T1 sequence (Q96RJ0 whole entry): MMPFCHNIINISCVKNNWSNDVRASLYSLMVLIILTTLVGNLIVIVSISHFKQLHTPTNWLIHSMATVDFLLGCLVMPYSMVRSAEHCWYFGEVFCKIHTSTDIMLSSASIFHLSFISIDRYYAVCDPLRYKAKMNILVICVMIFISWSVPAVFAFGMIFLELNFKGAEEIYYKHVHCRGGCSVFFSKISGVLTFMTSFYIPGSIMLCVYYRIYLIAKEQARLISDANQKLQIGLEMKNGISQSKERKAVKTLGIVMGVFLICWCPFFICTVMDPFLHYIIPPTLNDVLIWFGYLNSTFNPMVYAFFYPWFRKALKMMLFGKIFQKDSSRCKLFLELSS

[2] = molecular target: T1, Trace amine-associated receptor 1; test: Agonist activity at TAAR1 (unknown origin) transfected in HEK293 cells co-transfected with Galphaq-Nluc, Gbeta1/3 and Ggamma1/2/9-mVenus assessed as Galphaq-Gbeta/gamma dissociation by BRET assay; format: functional, cell-based

EC50 [1] [µM]	EC50 [2] [µM]	SMILES
> 10	> 10	O=S(=O)(NC[C@@H]1CCCN1)c1ccc(C(F)(F)F)cc1
> 10	> 10	Cc1ccc(S(=O)(=O)NC[C@@H]2CCCN2)cc1
> 10	> 10	O=S(=O)(NC[C@@H]1CCCN1)c1c(Cl)cccc1Cl
0.0472	0.131	O=S(=O)(NC[C@@H]1CCCN1)c1ccc2[nH]cnc2c1
	0.0357	COc1ccc(S(=O)(=O)NC[C@@H]2CCCN2)cc1
> 10	> 10	O=S(=O)(NC[C@@H]1CCCN1)c1ccccc1C(F)(F)F
> 10	> 10	Cc1cccc(S(=O)(=O)NC[C@@H]2CCCN2)c1
> 10	> 10	O=S(=O)(NC[C@@H]1CCCN1)c1ccc(Br)cc1
> 10	> 10	O=S(=O)(NC[C@@H]1CCCN1)c1ccc(Cl)cc1
	0.0055	O=c1[nH]c2ccc(S(=O)(=O)NC[C@@H]3CCCN3)cc2[nH]c1=O
> 10	> 10	O=S(=O)(NC[C@@H]1CCCN1)c1cccc(C(F)(F)F)c1
	0.0078	COc1ccccc1S(=O)(=O)NC[C@@H]1CCCN1
> 10	> 10	O=S(=O)(NC[C@@H]1CCCN1)c1cccc(Cl)c1
> 10	> 10	O=S(=O)(NC[C@@H]1CCCN1)c1cccc(Br)c1
0.275		CCC[C@H]1CN(C(=O)c2cc(Cl)cn2C)C[C@@H]1N
	0.055	O=S(=O)(NC[C@@H]1CCCN1)c1ccc2ccccc2c1
	0.0632	O=S(=O)(NC[C@@H]1CCCN1)c1ccccc1Cl
> 10	> 10	O=S(=O)(NC[C@@H]1CCCN1)c1ccc(Cl)s1
	0.0912	N[C@H]1CN(c2ncccc2C(F)(F)F)C[C@@H]1C1CC1

Source: ChEMBL document CHEMBL6177995, “In Silico Discovery of Novel Potent Trace Amine-Associated Receptor TAAR1 Agonists as Promising Drug Candidates for the Treatment of Schizophrenia” (J Med Chem, 2025)
